Source: patent US5670521A, “Reversal of multi-drug resistance by triphenyl-azacycloalkane derivatives” (Merrell Pharmaceuticals Inc., priority 1996, dated 1997)

Tested on: KBV1 cells
Conditions: KBV1 vs wild type KB cells
Procedure: The ability of compounds of this invention to reverse multi drug resistance can be determined using standard test procedures. The ability of the test compounds to inhibit the growth of multidrug resistant human epidermoid carcinoma (KBV1) cells in the presence of both Vinblastine and the compound was determined.

In the case of `CC[C@]1(O)C[C@@H]2CN(CCc3c([nH]c4ccccc34)[C@@](C(=O)OC)(c3cc4c(cc3OC)N(C)[C@H]3[C@@](O)(C(=O)OC)[C@H](OC(C)=O)[C@]5(CC)C=CCN6CC[C@]43[C@@H]65)C2)C1` [Vinblastine], the “resistance to vinblastine compared to wild type KB cells” value is reported as “at least 1,000 times”.
